Source: patent EP2982680B1, “PROTAMINE PEPTIDOMIMETIC, AND PHARMACEUTICALLY ACCEPTABLE SALTS AND USE THEREOF” (Academy of Military Medical Sciences, priority 2013, dated 2014)
Values belong to the molecule of their own block, whether it stands above or below them. Where a SMILES comes first, the peptide text is derived from it. Where no end group is shown, it is not given here.

Assays:
[1] = amino acid; cited from earlier work
[2] = Water solubility of synthesized peptides
[3] = test system: heparin; assay: Antagonism of protamine-like peptides against heparin anticoagulation in vitro (heparin neutralization, rabbit whole blood clotting); parameters: species or system New Zealand rabbits; conditions: for Amount of neutralized heparin (U/mg) Mean ± SD: average from five tests; for Amount of neutralized heparin (U/mg) Mean ± SD / Clotting time / Amount of neutralized heparin (U/mg) 1 / Amount of neutralized heparin (U/mg) 2 / Amount of neutralized heparin (U/mg) 3 / Amount of neutralized heparin (U/mg) 4 / Amount of neutralized heparin (U/mg) 5: rabbit whole blood added with heparin; for I (Anti-heparin index): concentration of polypeptide/1 unit of heparin, lower index = better antagonism; for Clotting time: 37 °C, blank control 10.62±0.49; for Amount of neutralized heparin (U/mg) 1: repeat 1 of 5; for Amount of neutralized heparin (U/mg) 1 / Amount of neutralized heparin (U/mg) 2 / Amount of neutralized heparin (U/mg) 3 / Amount of neutralized heparin (U/mg) 4 / Amount of neutralized heparin (U/mg) 5: test sample 1 mg per mL; for Amount of neutralized heparin (U/mg) 2: repeat 2 of 5; for Amount of neutralized heparin (U/mg) 3: repeat 3 of 5; for Amount of neutralized heparin (U/mg) 4: repeat 4 of 5; for Amount of neutralized heparin (U/mg) 5: repeat 5 of 5
Text: Reference standard of heparin was exactly weighed and then dissolved into several solutions with different concentrations by adding 0.9% sodium chloride solution according to the marked potency. The increment of heparin units per mL between two solutions having adjacent concentrations should be similar with no more than five units.
The test sample was the protamine-like peptide. If the test sample was in a powder form, it was accurately weighed on the basis of dry sample. Then, a solution of 0.9% sodium chloride was added thereto to provide a solution containing 1 mg of test sample per mL.
Eight small dry clean teat tubes with the same diameter (0.8 × 3.8 cm) were picked. Tube 1 and Tube 8 were used as the blank control into which 0.2 mL of 0.9% sodium chloride solution was added. Tube 2 to Tube 7 were used as the ones with test samples into each of which 0.1 ml of test solution was added together with 0.1 ml of heparin standard dilution having one concentration mentioned above. The mixture was well mixed immediately. An appropriate amount (0.8 ml) of whole blood freshly drawn from rabbits was added into these eight test tubes described above and then well mixed immediately to avoid generation of bubbles. Timing began at that time and the test tubes were all placed in a thermostatic water bath at 37 ± 0.5 °C. The interval between blood sampling and tube incubation in the thermostatic water bath should not be longer than two minutes. If the plasma was used, then 0.7 mL of plasma was added to each of the test tubes described above and then the test tubes were placed into a thermostatic water bath at 37 ± 0.5 °C to warm up for 5 to 10 minutes. Then, into each test tube, 0.1 mL of 1% calcium chloride solution was added and immediately mixed to avoid generation of bubbles. At that time, timing began. The test tubes were observed and the time until coagulation was recorded.
The clotting time in one control tube should not be more than 1.35 times longer than that in the other control tube. Among test tubes where the clotting time was no longer than 150% of the average coagulating time in two control tubes, the tube with the highest concentration of heparin was used as the endpoint tube.
The test was repeated for five times. The concentration of heparin in the endpoint tube was measured in all five tests, and the deviation was not allowed to be higher than 10 units. The average from five tests was deemed as the number of units of the heparin neutralized by 1 mg of the test sample (dry product) (the amount of neutralized heparin).
The anticoagulant time of heparin, i.e. the clotting time from the addition of the series of protamine-like peptides, were recorded where the clotting time in tubes with plasma but not heparin was considered as the control clotting time. The average value in each coagulation test was calculated, and ratio of the concentration in nmol of the added potamine-like peptide to 1 IU of neutralized heparin was regarded as the anti-heparin index (I) of the protamine-like peptide. Anti-heparin index = concentration of polypeptide/1 unit of heparin (nmol/U). [formula]

Molecule: N=C(N)NCCC[C@H](N)C(=O)O [Arginine]
isoelectric point (pI) [1]: 10.76

Molecule: N[C@@H](Cc1c[nH]cn1)C(=O)O [Histidine]
isoelectric point (pI) [1]: 7.59

Molecule: NCCCC[C@H](N)C(=O)O [Lysine]
isoelectric point (pI) [1]: 9.74

water solubility [2]: good water solubility
Molecule: N=C(N)NCCC[C@H](NC(=O)[C@H](CCCNC(=N)N)NC(=O)[C@@H](N)CCCNC(=N)N)C(=O)O [R3, (R)3] (H-Arg-Arg-Arg-OH)

water solubility [2]: good water solubility
Molecule: N=C(N)NCCC[C@H](NC(=O)[C@H](CCCNC(=N)N)NC(=O)[C@H](CCCNC(=N)N)NC(=O)[C@H](CCCNC(=N)N)NC(=O)[C@H](CCCNC(=N)N)NC(=O)[C@H](CCCNC(=N)N)NC(=O)[C@@H](N)CCCNC(=N)N)C(=O)O [R7, (R)7]

water solubility [2]: good water solubility
Molecule: N=C(N)NCCC[C@H](NC(=O)[C@H](CCCNC(=N)N)NC(=O)[C@H](CCCNC(=N)N)NC(=O)[C@H](CCCNC(=N)N)NC(=O)[C@H](Cc1c[nH]cn1)NC(=O)[C@H](CCCNC(=N)N)NC(=O)[C@H](CCCNC(=N)N)NC(=O)[C@H](CCCNC(=N)N)NC(=O)[C@H](CCCNC(=N)N)NC(=O)[C@H](CCCNC(=N)N)NC(=O)[C@H](CCCNC(=N)N)NC(=O)[C@H](CCCNC(=N)N)NC(=O)[C@H](CCCNC(=N)N)NC(=O)[C@H](CCCNC(=N)N)NC(=O)[C@@H](N)CCCNC(=N)N)C(=O)O [R15-5]

Molecule: KKKKKKKKKKKKKKK [K15, (K)15]
water solubility [2]: good water solubility

water solubility [2]: good water solubility
Molecule: RRRRR [R5, (R)5]

Molecule: RRRRRRHRRRRRRRR [R15-8]
Amount of neutralized heparin (U/mg) Mean ± SD [3]: 108.4±1.32 U/mg
I (Anti-heparin index) [3]: 3.93 nmol/U
Clotting time [3]: 14.35 ± 0.38 min
Amount of neutralized heparin (U/mg) 1 [3]: 110 U/mg
Amount of neutralized heparin (U/mg) 2 [3]: 105 U/mg
Amount of neutralized heparin (U/mg) 3 [3]: 105 U/mg
Amount of neutralized heparin (U/mg) 4 [3]: 112 U/mg
Amount of neutralized heparin (U/mg) 5 [3]: 110 U/mg
water solubility [2]: good water solubility

Molecule: RRRRRRRRRRRRRHR [R15-2]
Amount of neutralized heparin (U/mg) Mean ± SD [3]: 110±1.342 U/mg
I (Anti-heparin index) [3]: 4.66 nmol/U
Clotting time [3]: 13.35 ± 0.56 min
Amount of neutralized heparin (U/mg) 1 [3]: 110 U/mg
Amount of neutralized heparin (U/mg) 2 [3]: 113 U/mg
Amount of neutralized heparin (U/mg) 3 [3]: 110 U/mg
Amount of neutralized heparin (U/mg) 4 [3]: 110 U/mg
Amount of neutralized heparin (U/mg) 5 [3]: 110 U/mg
water solubility [2]: good water solubility

water solubility [2]: good water solubility
Molecule: RRRRRRRRRRRRRRRRRRRR [R20, (R)20]
